Key:
human PDE9A2 = molecular target: T1, human PDE9A2 (Homo sapiens, UniProt O76083); experiment: PDE9A2 enzymatic activity assay (scintillation proximity assay); assay type: biochemical; settings: SPA, lysate of SF9 cells expressing human PDE9A2, 20 nanomolar cGMP
T1 construct: made in house; host or cells: Sf9 insect cells (crude lysate, not purified)
Description: The total protein amount included in the assay varied upon infection and production efficacy of the SF9 cells and lay in the range of 0.1-100 ng.
The assays were run in 384-well format. The test reagents as well as the enzyme and the substrate were diluted in assay buffer. The assay buffer contained 50 mM Tris, 8.3 mM MgCl2, 1.7 mM EGTA, 0.1% BSA, 0.05% Tween 20; the pH of assay buffer was adjusted to 7.5.
(§1) IC50 can be calculated with GraphPadPrism or other suitable software setting the positive control as 100 and the negative control as 0. For calculation of IC50, dilutions of the test compounds […] are selected and tested following the aforementioned protocol.

PDE1C = PDE1C (Homo sapiens, UniProt Q14123); experiment: PDE1C assay, run analogously to the PDE9A2 assay; assay type: biochemical; settings: ratio PDE1C vs PDE9A2
Text: The reaction can be stopped by applying the same inhibitor as the one that is outlined above (1-(2-Chlorophenyl)-6-[(2R)-3,3,3-trifluoro-2-methyl-propyl]-1,5-dihydro-4H-pyrazolo[3,4-d]pyrimidine-4-one).
as §1
Selectivity is the ratio (IC50 for PDE1C inhibition [nanomolar (nM)])/(IC50 for PDE9A2 inhibition [nanomolar (nM)]).

human PDE9A = human PDE9A (Homo sapiens, UniProt O76083); settings: isolated enzyme, concentrations of up to 100 micromolar (μM); cited from earlier work
Murine PDE9A = molecular target: T2, Murine PDE9A (Mus musculus, UniProt O70628); settings: concentrations below 200 micromolar; cited from earlier work
T2 sequence (O70628 1-534): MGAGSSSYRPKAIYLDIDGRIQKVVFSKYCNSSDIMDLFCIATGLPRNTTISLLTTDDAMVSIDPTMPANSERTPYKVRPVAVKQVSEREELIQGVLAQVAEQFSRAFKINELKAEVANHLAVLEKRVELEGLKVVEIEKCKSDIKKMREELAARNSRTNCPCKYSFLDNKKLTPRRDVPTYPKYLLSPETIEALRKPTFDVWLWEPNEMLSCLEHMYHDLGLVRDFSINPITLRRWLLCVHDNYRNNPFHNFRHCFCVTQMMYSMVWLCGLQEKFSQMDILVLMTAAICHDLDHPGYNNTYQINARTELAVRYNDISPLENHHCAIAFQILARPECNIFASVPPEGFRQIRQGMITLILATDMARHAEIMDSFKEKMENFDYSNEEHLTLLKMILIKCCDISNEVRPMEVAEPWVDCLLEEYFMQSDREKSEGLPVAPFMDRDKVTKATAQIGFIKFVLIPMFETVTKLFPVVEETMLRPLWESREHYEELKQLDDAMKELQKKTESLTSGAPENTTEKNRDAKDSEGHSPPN

Sequence of human PDE9A (O76083 whole entry): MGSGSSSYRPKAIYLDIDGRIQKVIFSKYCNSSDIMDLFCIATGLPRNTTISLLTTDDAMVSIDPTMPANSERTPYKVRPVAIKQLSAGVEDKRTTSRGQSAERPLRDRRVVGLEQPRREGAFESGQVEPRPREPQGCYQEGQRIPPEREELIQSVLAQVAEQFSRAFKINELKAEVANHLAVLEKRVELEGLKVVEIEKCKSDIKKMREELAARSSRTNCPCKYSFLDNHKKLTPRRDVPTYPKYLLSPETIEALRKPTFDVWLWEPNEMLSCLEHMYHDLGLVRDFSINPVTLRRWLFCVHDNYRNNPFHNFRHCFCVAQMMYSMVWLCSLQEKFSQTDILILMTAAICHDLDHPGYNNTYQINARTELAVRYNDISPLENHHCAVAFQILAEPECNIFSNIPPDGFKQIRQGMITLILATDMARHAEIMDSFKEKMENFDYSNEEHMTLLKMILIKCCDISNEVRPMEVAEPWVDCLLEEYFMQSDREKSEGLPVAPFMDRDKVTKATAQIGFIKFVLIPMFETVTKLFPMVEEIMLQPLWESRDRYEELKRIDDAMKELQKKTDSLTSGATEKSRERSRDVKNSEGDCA
T1 sequence (O76083 1-533 isoform O76083-2): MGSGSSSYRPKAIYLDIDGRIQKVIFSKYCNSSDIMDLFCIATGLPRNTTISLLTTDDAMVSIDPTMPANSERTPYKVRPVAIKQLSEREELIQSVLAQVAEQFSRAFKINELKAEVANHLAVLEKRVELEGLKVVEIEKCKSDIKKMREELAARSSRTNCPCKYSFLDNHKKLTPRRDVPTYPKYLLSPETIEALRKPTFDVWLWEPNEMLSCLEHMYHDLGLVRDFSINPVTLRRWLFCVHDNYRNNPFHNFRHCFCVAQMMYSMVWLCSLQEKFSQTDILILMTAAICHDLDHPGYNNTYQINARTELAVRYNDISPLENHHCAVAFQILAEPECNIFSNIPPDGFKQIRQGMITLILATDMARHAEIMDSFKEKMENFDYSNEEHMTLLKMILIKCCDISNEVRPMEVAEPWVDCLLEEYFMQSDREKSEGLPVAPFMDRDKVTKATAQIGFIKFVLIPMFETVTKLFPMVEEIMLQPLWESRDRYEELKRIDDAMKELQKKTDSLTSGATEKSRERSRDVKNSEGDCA

| IC50 (human PDE9A2) | Selectivity (IC50 for PDE1C inhibition / IC50 for PDE9A2 inhibition) (PDE1C) | Compound | inhibition of human PDE9A (human PDE9A) | inhibition of murine PDE9A (Murine PDE9A) |
| --- | --- | --- | --- | --- |
| 6 nM | 123 | O=c1[nH]c([C@@H]2CC[C@H]2c2cn3ccccc3n2)nc2c1cnn2C1CCC(F)(F)CC1 (racemic) [Example 4] |  |  |
| 10 nM | 40 | O=c1[nH]c([C@@H]2CC[C@H]2c2cn3ccc(Cl)cc3n2)nc2c1cnn2C1CCC(F)(F)CC1 (racemic) [Example 5] |  |  |
|  |  | CC(C)Cn1c(=O)n(C)c(=O)c2[nH]cnc21 [IBMX] | no inhibition | not inhibited |
|  |  | CC(=O)Nc1ccc(-c2c[nH]c(=O)cn2)cc1 [SKF94120] | no inhibition |  |
|  |  | OCCN(CCO)c1nc(N2CCCCC2)c2nc(N(CCO)CCO)nc(N3CCCCC3)c2n1 [dipyridamole] | no inhibition |  |
|  |  | COc1ccc(C2CNC(=O)C2)cc1OC1CCCC1 (stereo not shown) [rolipram] | no inhibition |  |
|  |  | CCOC(=O)C1=C[C@]2(CC)CCCN3CCc4c(n1c1ccccc41)[C@@H]32 [vinpocetine] | no inhibition |  |
